Values of other authors, collected in patent US8623825B2, “Edible fat composition for enhancing bone strength” (Enzymotec Ltd., priority 2007, dated 2014).

Columns and labels:
vertebral bone = conditions: independent of bone mineral density
[1] = tested on: bone of post-menopausal women

| SMILES | Vertebral bone strength (vertebral bone) | Bone mass ([1]; fluoride treatment) | Skeletal fragility ([1]; particularly non-vertebral bones) |
| --- | --- | --- | --- |
| O=C(c1ccc(OCCN2CCCCC2)cc1)c1c(-c2ccc(O)cc2)sc2cc(O)ccc12 [raloxifene] | significantly improved | – | – |
| F [fluoride] | – | increased bone mass | increased skeletal fragility |
